Data as given in patent US6706732B1, “Nasal preparation of guanidinoimino quinoline derivatives” (Takeda Chemical Industries, Ltd., priority 1999, dated 2004).

test: Serum concentration of Compound B after nasal administration to rats; type: in vivo, male SD rat; conditions: rat
Experimental: A male SD rat (8 weeks old) was anesthetized with ether and each of the preparations of Formulation Examples 1 to 6 was given into the left nasal cavity. The dose of Compound B was 0.75 mg/kg (Formulation Example 1), 1.5 mg/kg (Formulation Example 2), 3.0 mg/kg (Formulation Example 3), 6.0 mg/kg (Formulation Example 4), 1.5 mg/kg (Formulation Example 5) and 3.0 mg/kg (Formulation Example 6). Each of the preparations of Formulation Examples 1 to 4 was taken as a portion of about 10 mg, which was filled in a polyethylene tube (INTRAMEDIC PE90, BECKTON DICKINSON) and the polyethylene tube was inserted into the nasal cavity, where it was sprayed with 2 cc of air. Each of the preparations of Formulation Examples 5 and 6 was given as a 20 μl aliquot via a micropipette (*EXCELMYDEGI* 8000, D-5, SANKO JUNYAKU). The preparation of Comparative 1 was given intravenously into a femoral vein of the rat (dose: 1 mg/kg).
After administration of the preparation, blood was taken at a certain interval via a tail vain and examined for the serum concentration of Compound B.

SMILES	in vivo absorption
CS(=O)(=O)O.Cc1ccnc2c1C(=NNC(=N)N)CC(c1ccccc1Cl)C2 (single isomer, unassigned; (-)) [Compound B, (−)-7-(2-chlorophenyl)-5-guanidinoimino-4-methyl-5,6,7,8-tetrahydroquinoline methanesulfonate]	rapid in vivo absorption

test: not given; conditions: not given

SMILES	melting point
Cc1ccnc2c1C(=NNC(=N)N)CC(c1ccccc1Cl)C2.Cl (centres unmarked)	204 °C (dec.)
CS(=O)(=O)O.Cc1ccc(F)cc1C1CC(=NNC(=N)N)c2c(C)ccnc2C1 (centres unmarked)	202 to 204 °C
Cc1ccnc2c1C(=NNC(=N)N)CC(c1cc(F)ccc1Cl)C2.Cl (centres unmarked)	268 °C (dec.)
Cc1ccnc2c1C(=NNC(=N)N)CC(c1cc(F)ccc1F)C2.Cl (centres unmarked)	290 °C (dec.)
Cc1cc(C)c2c(n1)CC(c1cc(F)ccc1C)CC2=NNC(=N)N.Cl (centres unmarked)	201 to 203 °C
CS(=O)(=O)O.Cc1ccnc2c1C(=NNC(=N)N)CC(c1ccccc1Cl)C2 (single isomer, unassigned; (-)) [Compound B, (−)-7-(2-chlorophenyl)-5-guanidinoimino-4-methyl-5,6,7,8-tetrahydroquinoline methanesulfonate]	194 to 195 °C
Cc1ccc(F)cc1C1CC(=NNC(=N)N)c2c(C)ccnc2C1.Cl (centres unmarked) [Compound C]	202 to 205 °C
Cc1ccc(F)cc1C1CC(=NNC(=N)N)c2c(C)ccnc2C1.Cl (centres unmarked) [Compound E]	192 to 198 °C
CS(=O)(=O)O.Cc1ccnc2c1C(=NNC(=N)N)CC(c1cc(F)ccc1Cl)C2 (centres unmarked) [Compound H]	209 to 212 °C
CS(=O)(=O)O.Cc1ccnc2c1C(=NNC(=N)N)CC(c1cc(F)ccc1Cl)C2 (centres unmarked) [Compound I]	206 to 209 °C
